Assay results reported in ChEMBL document CHEMBL1629543, “Recovery of humoral immunity is critical for successful antiviral therapy in disseminated mouse adenovirus type 1 infection” (Antimicrob Agents Chemother, 2008).
Active and inactive are the calls of the source. The rule behind the calls is not given here.

Columns and labels:
Murine adenovirus 1 = conditions: Liver, 100 mg/kg
Description: Antiviral activity against MAV-1 infected in immunocompromized BALB/c mouse assessed as decrease in viral DNA load in liver at 100 mg/kg, ip treated 8 days before infection measured after 28 days post infection by RT-PCR

Mus musculus [1] = species: Mus musculus; conditions: BALB/c, T-cell, 100 mg/kg
Description: Immunosuppressive activity against MAV-1 infected BALB/c mouse assessed as T cells suppression at 100 mg/kg, ip treated 8 days before infection for 4 weeks measured 14 days post infection by flow cytometry

Mus musculus [2] = species: Mus musculus; conditions: BALB/c, 100 mg/kg
Description: Immunosuppressive activity against MAV-1 infected BALB/c mouse assessed as inhibition of production of protective antibodies at 100 mg/kg, ip treated 8 days before infection for 3 weeks measured after 62 days postinfection

Mus musculus [3] = species: Mus musculus; conditions: BALB/c, 100 mg/kg; remark: listed apart in the source
Description: Immunosuppressive activity against MAV-1 infected BALB/c mouse assessed as inhibition of production of protective antibodies at 100 mg/kg, ip treated 8 days before infection for 2 weeks measured after 62 days postinfection

O=P1(N(CCCl)CCCl)NCCCO1 (centres undefined)
inhibition (Murine adenovirus 1): Active | inhibition (Mus musculus [1]): Active | inhibition (Mus musculus [2]): inactive | inhibition (Mus musculus [3]): Active
